Experimental data from BindingDB's records for doi:10.1016/j.bmc.2016.01.035 (Tohoku Pharmaceutical University, 2016).

Experiment: Agonist activity at ERalpha in human MCF7 cells assessed as induction of cell proliferation incubated for 5 days by WST-8 assay

EC50: 0.22 nM
Compound: CC(=O)N1C(C)(C)CC(=C(c2ccc(O)cc2)c2ccc(O)cc2)CC1(C)C
